Assay results published in patent publication US7514469B2, “Formulation of a mixture of Free-B-ring flavonoids and flavans as a therapeutic agent” (Unigen Pharmaceuticals, Inc., priority 2002, dated 2009).
Where two headings read alike, the source gives them in different places. Each block holds one molecule with its values, some of them ahead of it.

Columns and labels:
recombinant ovine COX-2 [1] = biological target: T1, recombinant ovine COX-2 (Ovis aries, UniProt P79208); assay: COX-2 peroxidase assay, high throughput (Example 2); assay type: biochemical; settings: 20 μg/mL
T1 construct: purchased Cayman
T1 sequence (P79208 17-603): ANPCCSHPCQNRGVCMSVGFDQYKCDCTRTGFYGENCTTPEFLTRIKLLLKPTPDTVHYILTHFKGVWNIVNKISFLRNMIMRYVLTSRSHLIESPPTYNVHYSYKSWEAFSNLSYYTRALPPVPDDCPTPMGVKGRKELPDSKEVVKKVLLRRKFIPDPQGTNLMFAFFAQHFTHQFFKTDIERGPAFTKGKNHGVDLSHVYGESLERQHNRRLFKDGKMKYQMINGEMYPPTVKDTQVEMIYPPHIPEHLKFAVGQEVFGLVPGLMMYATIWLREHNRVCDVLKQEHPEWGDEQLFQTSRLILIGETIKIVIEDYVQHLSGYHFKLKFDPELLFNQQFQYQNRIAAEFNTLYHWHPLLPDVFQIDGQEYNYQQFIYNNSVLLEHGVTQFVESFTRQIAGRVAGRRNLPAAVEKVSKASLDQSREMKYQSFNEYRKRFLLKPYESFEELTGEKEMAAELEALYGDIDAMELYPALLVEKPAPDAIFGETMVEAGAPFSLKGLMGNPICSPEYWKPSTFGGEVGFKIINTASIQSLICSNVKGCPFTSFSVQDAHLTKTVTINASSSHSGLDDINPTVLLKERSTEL
From the text: Peroxidase Assay. The assay to detect inhibitors of COX-2 was modified for a high throughput platform (Raz). […] Luminescence was then read using a Wallac Victor 2 plate reader. […] Data is presented as the percent of peroxidase activity relative to the recombinant ovine COX-2 enzyme and substrate alone.

Ovine COX-1 [2] = biological target: T2, Ovine COX-1 (Ovis aries, UniProt P05979); assay: COX-1 peroxidase assay (Example 2 method); assay type: biochemical; settings: read-out: Inhibition of COX-1
T2 sequence (P05979 25-600): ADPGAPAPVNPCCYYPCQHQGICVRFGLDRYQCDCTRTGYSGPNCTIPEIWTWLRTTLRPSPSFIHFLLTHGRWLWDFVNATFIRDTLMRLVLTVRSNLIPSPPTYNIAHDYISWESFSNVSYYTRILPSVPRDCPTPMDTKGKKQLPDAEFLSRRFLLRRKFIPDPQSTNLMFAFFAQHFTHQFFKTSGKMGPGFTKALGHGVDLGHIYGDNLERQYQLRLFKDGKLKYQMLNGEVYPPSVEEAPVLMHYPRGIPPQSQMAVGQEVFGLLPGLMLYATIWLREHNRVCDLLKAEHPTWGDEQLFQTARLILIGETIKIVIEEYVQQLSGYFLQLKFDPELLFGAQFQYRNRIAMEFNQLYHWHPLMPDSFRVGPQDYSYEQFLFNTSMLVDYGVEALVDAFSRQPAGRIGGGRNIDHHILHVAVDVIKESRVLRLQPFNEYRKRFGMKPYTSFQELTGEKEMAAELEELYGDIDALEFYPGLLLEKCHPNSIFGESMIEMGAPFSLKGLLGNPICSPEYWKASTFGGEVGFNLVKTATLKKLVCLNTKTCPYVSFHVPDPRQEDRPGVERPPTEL
From the text: Peroxidase Assay. The assay to detect inhibitors of COX-2 was modified for a high throughput platform (Raz). […] Luminescence was then read using a Wallac Victor 2 plate reader.
Comparison of the relative inhibition of the COX-1 and COX-2 isoforms requires the generation of IC50 values for each of these enzymes. […] Examination of the HTP fractions and purified compounds from these fractions is necessary to determine the true specificity of inhibition for these extracts and compounds.

COX-1 = settings: cited from earlier work
colorectal cancer = settings: in vivo; cited from earlier work
[3] = test system: subjects with rheumatoid arthritis or osteoarthritis of the knee and/or hip; assay: Clinical study, WOMAC Osteo-Arthritis Index; assay type: in vivo, human; settings: 200 mg/day; vs baseline; completers only
From the text: This clinical study was a single-center, randomized, double-blind, placebo-controlled study. Sixty subjects (n=60) with rheumatoid arthritis or osteoarthritis of the knee and/or hip were randomly placed into one of the following four groups:
Subjects were sex-matched and recruited from ages 40 to 75. […] Subjects taking NSAIDs engaged in a two-week washout period before beginning the study. Physical activity was not restricted, nor were the subjects given any advice as to diet. Subjects were free to withdraw from the trial at any time for any reason. The efficacy of the treatments was evaluated at 30, 60 and 90 days of oral administration by physicians, using the Western Ontario and McMaster Universities (WOMAC) Osteo-Arthritis Index (See Lingard et al. (2001) J. Bone & Joint Surg. 83:1856-1864; Soderman and Malchau (2000) Acta Orthop. Scand. 71(1):39-46). This protocol was reviewed and approved by an IRB board from University of Montreal.
The WOMAC was administered to subjects preferably in the doctor's office. They were asked to read and respond to a questionnaire on their own or via proxy in the waiting room of the doctor's office or were interviewed by project personnel over the telephone and the data were transcribed in the computer database. This offered a stable environment among patients and reduced the possibility of bias due to different home environments among patients. Between groups differences for all measurements were evaluated with One-Way Analysis of Variance and Tukey's Least Significant Difference for multiple comparisons. All questions were assigned a weight from 0 to 4 depending on the severity of pain, stiffness or impaired function. These values were then converted to percentages normalized to 100 and reported as WOMAC scores. Higher values are indicative of greater impairment. […] The lower the score, the less pain and stiffness and better function a patient has.

[4] = Clinical study, weight and BMI; assay type: in vivo, human; settings: 200 mg/day
Experimental: Additional measurements taken during the clinical trial were height and weight. All subjects in all groups (see Example 20) were measured for height and weight at 30 and 90 days of treatment. The subjects were given no recommendations on diet or exercise in order not to bias the results toward reduction of BMI and weight loss. Table 14 illustrates the changes in weight and BMI that occurred after treatment for 30 and 90 days.

mouse = settings: oral, 100 mg/kg; cited from earlier work
[5] = test system: LTB4 synthesis (5-LO pathway) in HT-29 cells; assay: LTB4 ELISA in HT-29 cells; assay type: cell-based; settings: 3 μg/mL, 48 hrs; Univestin ratio 80:20
Experimental: A competitive ELISA for LTB4 (LTB4; Neogen, Inc., Cat #4061 10) was used to assess the effect of Univestin™ on newly synthesized levels of LTB4 present in each cell line as a measure of Univestin™'s inhibitory effect on the 5-LO pathway. The assay was performed in duplicate by adding 160,000 to 180,000 cells per well in 6-well plates. […] Each treated cell line was then harvested by centrifugation and disrupted by gentle dounce homogenization lysis in physiological buffers.

Ovine COX-1 [6] = biological target: T2, Ovine COX-1; assay: COX-1 peroxidase activity IC50 assay with TMPD (Example 6); assay type: biochemical
Experimental: (§1) A cleavable, peroxide chromophore was included in the assay to visualize the peroxidase activity of each enzyme in the presence of arachidonic acid as a cofactor. Typically, the assays were performed in a 96-well format. Each inhibitor, taken from a 10 mg/mL stock in 100% DMSO, was tested in triplicate at room temperature using the following range of concentrations: 0, 0.1, 1, 5, 10, 20, 50, 100, and 500 μg/mL. […] The components were mixed for 10 seconds on a rotating platform, after which 20 μL of 2 mM N,N,N′N′-Tetramethyl-p-phenylenediamine dihydrochloride (TMPD) and 20 μL of 1.1 mM AA was added to initiate the reaction. The plate was shaken for 10 seconds and then incubated for 5 minutes before reading the absorbance at 570 nm. The inhibitor concentration vs. percentage inhibition was plotted and the IC50 determined by taking the half-maximal point along the isotherm and intersecting the concentration on the x-axis. The IC50 was then normalized to the number of enzyme units in the assay.

recombinant ovine COX-2 [7] = biological target: T1, recombinant ovine COX-2; assay: COX-2 peroxidase activity IC50 assay with TMPD (Example 6); assay type: biochemical
Experimental: as §1

potato 5-lipoxygenase = assay: Lipoxygenase Inhibitor Screening Assay with potato 5-LO; assay type: biochemical
From the text: As noted above, one of the most important pathways involved in the inflammatory response is produced by non-heme, iron-containing lipoxygenases (5-LO, 12-LO, and 15-LO), which catalyze the addition of molecular oxygen onto fatty acids such as AA (AA) to produce the hydroperoxides 5-, 12- and 15-HPETE, which are then converted to leukotrienes. There were early indications that the flavan extract from A. catechu may provide some degree of 5-LO inhibition, thereby preventing the formation of 5-HPETE. […] The 15-LO from soybeans normally used in the kit was replaced with potato 5-LO, after a buffer change from phosphate to a tris-based buffer using microfiltration was performed. This assay detects the formation of hydroperoxides through an oxygen sensing chromagen.

inhibition at 20 µg/mL (Ovine COX-1 [2]; 20 μg/mL): 107%
Structure (SMILES): O=c1cc(-c2ccccc2)oc2cc(O)c(O)c(O)c12 [baicalein]

inhibition at 20 µg/mL (recombinant ovine COX-2 [1]): 97%
inhibition at 20 µg/mL (Ovine COX-1 [2]; 20 μg/mL): 95%
Structure (SMILES): O=C(O)[C@H]1O[C@@H](Oc2cc3oc(-c4ccccc4)cc(=O)c3c(O)c2O)[C@H](O)[C@@H](O)[C@@H]1O [baicalin]

IC50 for COX-1 (Ovine COX-1 [6]; normalized to enzyme units): 0.11 μg/mL/unit of enzyme
IC50 for COX-2 (recombinant ovine COX-2 [7]; normalized to enzyme units): 0.42 μg/mL/unit
IC50 for 5-LO (potato 5-lipoxygenase): 1.38 μg/mL/unit of enzyme
Structure (SMILES): Oc1cc(O)c2c(c1)OC(c1ccc(O)c(O)c1)C(O)C2 (centres unmarked) [catechin]

IC50 (Ovine COX-1 [6]): 24.1 µM
IC50 (recombinant ovine COX-2 [7]): 68.9 µM
Structure (SMILES): Oc1cc(O)c2c(c1)O[C@H](c1ccc(O)c(O)c1)[C@H](O)C2 [epicatechin]

More lines, now with the values behind:

Structure (SMILES): COc1cc2oc(-c3ccccc3)cc(=O)c2c(O)c1O [5,6-Dihydroxy-7-methoxyflavone]
inhibition at 20 µg/mL (recombinant ovine COX-2 [1]): 59%
inhibition at 20 µg/mL (Ovine COX-1 [2]; 20 μg/mL): 75%

Structure (SMILES): O=c1cc(-c2ccccc2)oc2c(O)c(O)ccc12 [7,8-Dihydroxyflavone]
inhibition at 20 µg/mL (recombinant ovine COX-2 [1]): 63%
inhibition at 20 µg/mL (Ovine COX-1 [2]; 20 μg/mL): 74%

Structure (SMILES): Oc1cc(O)c2c(c1)O[C@H](c1ccc(O)c(O)c1)[C@@H](O)C2 [(+)-Catechin]
IC50 (COX-1; isolated from natural source): 80 µM

Structure (SMILES): CC(=O)Oc1ccccc1C(=O)O [Aspirin]
Reduction of colorectal cancer mortality (colorectal cancer): 50%
Reduction of incidence of colorectal cancer (colorectal cancer): 40-50%

Structure (SMILES): Cc1ccc(-c2cc(C(F)(F)F)nn2-c2ccc(S(N)(=O)=O)cc2)cc1 [Celecoxib]
Mean absolute change in WOMAC score Function-30 days [3]: −0.37
Mean absolute change in WOMAC score Function-60 days [3]: −6.97
Mean absolute change in WOMAC score Function-90 days [3]: −2.78
Mean absolute change in WOMAC score Pain-30 days [3]: −4.23
Mean absolute change in WOMAC score Pain-60 days [3]: −22.31
Mean absolute change in WOMAC score Pain-90 days [3]: −16.67
Mean absolute change in WOMAC score Stiffness-30 days [3]: −8.65
Mean absolute change in WOMAC score Stiffness-60 days [3]: −9.62
Mean absolute change in WOMAC score Stiffness-90 days [3]: −13.54
Change in mean BMI, 30 days [4]: −.68 kg/m^2
Change in mean BMI, 90 days [4]: −1.07 kg/m^2
Change in mean weight, 30 days [4]: -2.00 kg
Change in mean weight, 90 days [4]: -3.17 kg

Structure (SMILES): Oc1ccc([C@H]2Oc3cc(O)cc(O)c3C[C@H]2O)cc1 [Epiafzelechin]
IC50 (COX-1; isolated from Celastrus orbiculatus): 15 µM
Anti-inflammatory activity, carrageenin-induced mouse paw edema (mouse): demonstrated anti-inflammatory activity

Structure (SMILES): CC(C)Cc1ccc(C(C)C(=O)O)cc1 (centres unmarked) [Ibuprofen]
Reduction of newly synthesized LTB4 [5]: 20%

Structure (SMILES): COc1c(O)cc(O)c2c(=O)cc(-c3ccccc3)oc12 [Wogonin]
inhibition at 20 µg/mL (Ovine COX-1 [2]): 16%
